Experiment [1] relates to rat forced swim test model (depressive-like behavior). In words: Forced swim test in dark phase (Example 4). The settings on record: 1 mg/kg, i.m.; versus vehicle saline. The format is in vivo, Sprague Dawley rats. From the text: Animal groups: Male Sprague Dawley (SD) rats (8-10 weeks old) were grouped housed 2 per cage in standard animal cages with facilities for pelleted food and drinking water in polycarbonate bottle with stainless steel sipper tubes. During the experimental period, animals were housed in a single experimental room. Rats were distributed in 7 different experimental groups with 9-12 rats per group as illustrated in Table 8. Animals were distributed to different groups based on body weight data. Each experimental group was also coded so that the experimenter became unaware of the true experimental group at the time FST trial.
Animals were housed in an environment-controlled room at 22±3° C. and relative humidity of 30 to 70 percent. During the study, 12/12 light/dark cycles were maintained. Lights of the acclimatization area were switched off at 06:00 PM. All experiments were carried out at ambient temperature under dark phase of lighting (between 06:00 PM to 06:00 AM). Adequate fresh air supply of 12-15 air changes/hour was maintained in the experimental room. The maximum and minimum temperature and relative humidity in the experimental rooms was recorded once daily. The relative humidity in the experimental room was calculated daily from dry and wet bulb temperature recordings.
Swim 1 was carried out between 18:30 to 21:30.
Swim 2 was carried out between 19:30 to 21:30. Animals were administered test compounds from 18:30 onwards in staggered manner 60 minutes before FST 2.
Forced swim test was carried out in dark phase
On Day 1, animals were subjected to forced swim test training for 15 minutes (Swim 1) and on Day 2, Swim 2 was carried out post treatment.
On day 2 animals were dosed with respective treatment 60 min prior to performing FST.
Forced swim test (Swim 2) was scored manually with no video recording.
Forced swim test (FST), was used to study the depressive-like behavior in rodents. The test was carried out in transparent cylindrical glass containers measuring 46 cm in height and 20 cm in diameter.
There were 2 swim sessions, 24 h apart. The first session, Swim 1 was the pretest/training stage (15 min) and the second session, Swim 2, was the test stage (8 min).
In swim 2, first 1-minute data was excluded from analysis and rest 7 minutes data was considered. In 7 minutes, data, it was divided 5 minutes and 2 minute.
Twenty-four hours after the start of Swim 1, the test swim (Swim 2) was carried out.
Rat was placed in the water-filled cylinder for 8 min (Swim 2).
The duration of time spent immobile, swimming, and climbing was observed by an observer blind to the treatment group.
Immobility period: A rat was judged to be immobile when it remained floating in the water without struggling and was making only those movements necessary to keep its head above water.
Statistical analysis: One Way ANOVA, Dunnet's multiple comparison test was applied with respect to vehicle saline and Tukey's multiple comparison test was applied to compare the data in between the groups using GraphPad Prism version 9 software.

Experiment [2] relates to mouse behavior (SmartCube signature). The experiment can be described thus: SmartCube system behavioral classification (Example 6). The format is in vivo, Male C57/B16 mice. The note with it: IP. From the text: Dexmedetomidine and latrepirdine have anti-psychotic effects, when tested in the SmartCube® system (Psychogenics, Inc., Paramus, NJ; See also U.S. Pat. No. 7,580,798 incorporated herein by reference in its entirety). This system uses features derived from mouse behavioral data to first, classify mice on compound versus vehicle. This measure indicates how well the system can differentiate between a mouse on compound versus a mouse on vehicle. Secondly, by comparing the features to a proprietary reference database of behavioral feature sets that are linked to classes of marketed drugs known to treat neuro-psychiatric symptoms SmartCube® assigns a signature to the behavior. Thus, the system can be used as a model to identify both the activity and the psychiatric effect of a compound by comparing the effects of the compounds against drugs with known validated effects.
By comparing the responses of animals to known drugs, the test drug can be categorized according to its function; for example, hallucinogen, anxiogenic, analgesic, cognitive enhancer, psychostimulant, mood stabilizer, high dose anti-psychotic, anti-psychotic, sedative/hypnotic, anxiolytic, high dose antidepressant, antidepressant.
Once all features are extracted from the raw data through an automated pipeline, proprietary bioinformatics algorithms are used to decorrelate groups of features and find the combination of values that best separate different groups of interest. For each compound, at each dose, they system provides a probability that the drug is active and breaks down such putative activity into the different classes of interest.
SmartCube reference data used herein include anti-psychotics and anti-depressants tested at several dose ranges. “Anti-psychotic” versus “high dose anti-psychotic” as indicated in the legend, reflects the notion that anti-psychotics reference data is dose dependent. Anti-psychotics, when administered at higher doses, can engage additional receptor systems, and thus affect mouse behavior differently. The same applies for different doses of anti-depressants.
Animals: Male C57/B16 mice (N=12 per group) from Taconic Laboratories were used. Upon receipt, mice were group-housed in OPTI mouse ventilated cages with 4 mice per cage. Mice were acclimated to the colony room for at least one week prior to test and subsequently tested at approximately 8-9 weeks of age. All animals were examined, handled, and weighed prior to initiation of the study to assure adequate health and suitability and to minimize non-specific stress associated with manipulation.
All compounds tested were formulated in NP3 (vehicle solution): 5% Pharmasolve; 30% P3 (1:1:1 PEG200: PEG400: propylene glycol); 65% saline; pH is 5.1-6.
Test groups were: • Vehicle: NP3 • Dexmedetomidine at 0.005 and 0.010 mg/kg • Latrepirdine at 1 and 10 mg/kg • Dexmedetomidine and latrepirdine combinations (in mg/kg): 0.005/1.0; 0.005/10; 0.010/1.0; 0.010/10
Test compounds were injected intraperitoneally (IP) for 15 min before animals were placed in SmartCube for assessment.
Antipsychotic: SmartCube classifies the mouse behavior with test compound as similar to treatment with marketed anti-psychotics at therapeutically relevant doses.
High Dose Antipsychotic: SmartCube classifies the mouse behavior on test compound as similar to treatment with marketed anti-psychotics at doses that are considered as high therapeutically. High doses of anti-psychotics often cause sedation.
The results for the class analyses are presented as standardized bar charts with percentages that sum to 100 for each dose. The percentage indicates the probability the classifier can differentiate between the vehicle group and test group. The pattern indicates what class signature was assigned.

Molecules are shown by their SMILES. Where a name gives a salt, the structure may show the parent alone.

In the case of `Cc1ccc2c(c1)c1c(n2CCc2ccc(C)nc2)CCN(C)C1` [latrepirdine dihydrochloride hydrate], the “increase in swimming time” value in experiment [1] turned out to be 9.8%.

Regarding `Cc1ccc2c(c1)c1c(n2CCc2ccc(C)nc2)CCN(C)C1` [latrepirdine, 2,8-dimethyl-5-[2-(6-methylpyridin-3-yl)ethyl]-3,4-dihydro-1H-pyrido[4,3-b]indole], the SmartCube signature result in experiment [2] (1 and 10 mg/kg) was “antipsychotic signature”. In addition, the figures for the SmartCube total activity in experiment [2] (latrepirdine 1.0 mg/kg) and in experiment [2] (latrepirdine 10 mg/kg) were 20% and 80%, respectively.

(Values after patent US20260325500A1, “METHODS AND COMPOSITIONS FOR TREATING ACUTE STRESS DISORDER” (BioXcel Therapeutics, Inc., priority 2022, published 2026).)
